Earlier results in article PMC2760809 (Nucleic Acids Research, 2009).

Molecular target: many RNA molecules, including HIV TAR RNA and group I introns
Settings: read-out: Kd of arginine for RNA molecules

Kd: > 2000 µM
Structure (SMILES): N=C(N)NCCC[C@H](N)C(=O)O [Arginine]
